# Assay results taken from ChEMBL document CHEMBL5390237, “Discovery of Selective Histone Deacetylase 1 and 2 Inhibitors: Screening of a Focused Library Constructed by Click Chemistry, Kinetic Binding Analysis, and Biological Evaluation” (J Med Chem, 2023).
# Biological target: Histone deacetylase 2 (Homo sapiens, UniProt Q92769)
# Assay: Inhibition of full-length recombinant human C-terminal GST tagged HDAC2 expressed in Sf9 insect cells using aminoluciferin peptide substrate at 100 nM preincubated for 3 hrs followed by substrate addition and measured after 30 mins by HDAC-Glo I/II chemiluminescence assay
# Conditions: time 3.5 hrs
# Sequence of Histone deacetylase 2 (Q92769 whole entry): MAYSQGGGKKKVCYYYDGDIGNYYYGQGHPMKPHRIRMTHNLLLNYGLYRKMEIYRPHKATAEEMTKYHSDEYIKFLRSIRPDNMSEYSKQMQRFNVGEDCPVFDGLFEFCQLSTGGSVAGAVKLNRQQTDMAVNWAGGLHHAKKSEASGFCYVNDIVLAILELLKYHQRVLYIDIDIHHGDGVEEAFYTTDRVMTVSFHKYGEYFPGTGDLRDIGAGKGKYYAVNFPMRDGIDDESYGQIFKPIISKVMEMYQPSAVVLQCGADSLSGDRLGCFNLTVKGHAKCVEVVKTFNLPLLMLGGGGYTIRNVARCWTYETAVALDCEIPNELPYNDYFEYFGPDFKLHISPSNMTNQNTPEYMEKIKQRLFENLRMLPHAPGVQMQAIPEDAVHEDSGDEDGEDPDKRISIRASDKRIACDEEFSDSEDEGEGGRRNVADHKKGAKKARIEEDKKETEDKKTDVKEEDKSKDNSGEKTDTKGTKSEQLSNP
row,Compound,inhibition
1,Cc1cccc(C)c1NC(=O)Cn1cc(-c2ccc(C(=O)Nc3cc(-c4cccs4)ccc3N)cc2)nn1,52%
2,Nc1ccc(-c2cccs2)cc1NC(=O)c1ccc(-c2cn(CCc3ccccc3[N+](=O)[O-])nn2)cc1,33%
3,Cc1cccc(C)c1NC(=O)Cn1cc(CCC(=O)Nc2cc(-c3ccc(F)cc3)ccc2N)nn1,18%
4,Nc1ccc(-c2ccccc2)cc1NC(=O)c1cn(Cc2ccc(Oc3ccccc3)cc2)nn1,0%
5,Nc1ccc(-c2cccs2)cc1NC(=O)c1cccc(-c2cn(CCc3ccccc3Cl)nn2)c1,0%
6,Nc1ccc(-c2cccs2)cc1NC(=O)c1ccc(-c2cn(-c3ccccc3-c3ccccc3)nn2)cc1,0%
7,Nc1ccc(-c2cccs2)cc1NC(=O)c1ccc(-c2cn(CCc3cccc(Cl)c3)nn2)cc1,22%
8,Nc1ccc(-c2cccs2)cc1NC(=O)c1cn(CCC2CCCC2)nn1,0%
9,Nc1ccc(-c2ccsc2)cc1NC(=O)c1cn(CCC2CCCCC2)nn1,0%
10,Nc1ccc(-c2cccs2)cc1NC(=O)c1ccc(-c2cn(CCCCCC(=O)O)nn2)cc1,9%
11,Nc1ccc(-c2cccs2)cc1NC(=O)c1cccc(-c2cn(-c3ccccc3-c3ccccc3)nn2)c1,0%
12,Nc1ccc(-c2cccs2)cc1NC(=O)c1cccc(-c2cn(CCc3ccc(C(F)(F)F)cc3)nn2)c1,0%
13,Nc1ccc(-c2ccc(F)cc2)cc1NC(=O)c1cn(CCC23CC4CC(CC(C4)C2)C3)nn1,2%
14,Nc1ccc(-c2ccsc2)cc1NC(=O)c1cn(CCCCCc2ccccc2)nn1,0%
15,Nc1ccc(-c2cccnc2)cc1NC(=O)CCc1cn(CCCCCCCC(=O)O)nn1,0%
16,Nc1ccc(-c2cccs2)cc1NC(=O)c1ccc(-c2cn(CS(=O)(=O)c3ccccc3)nn2)s1,44%
17,Nc1ccc(-c2cccs2)cc1NC(=O)c1ccc(-c2cn(-c3cccc4ccccc34)nn2)s1,0%
18,Nc1ccc(-c2cccs2)cc1NC(=O)c1ccc(-c2cn(CCc3ccc(Cl)cc3)nn2)cc1,18%
19,Nc1ccc(-c2ccsc2)cc1NC(=O)CCc1cn(CCCCCC(=O)O)nn1,0%

row,Compound,inhibition
1,Nc1ccc(-c2cccs2)cc1NC(=O)c1ccc(-c2cn(CCC3CCCCC3)nn2)cc1,7%
2,Nc1ccc(-c2ccccc2)cc1NC(=O)c1cn(Cc2cccc3ccccc23)nn1,2%
3,Nc1ccc(-c2cccs2)cc1NC(=O)c1cn(C[S+]([O-])c2ccccc2)nn1 (stereo not drawn),8%
4,Nc1ccc(-c2ccc(F)cc2)cc1NC(=O)c1cn(-c2ccc(O)cc2)nn1,15%
5,Nc1ccc(-c2ccsc2)cc1NC(=O)c1cn(/C=C/c2ccccc2)nn1,5%
6,Nc1ccc(-c2ccc(F)cc2)cc1NC(=O)c1cn(CC2CCCCC2)nn1,3%
7,Nc1ccc(-c2cccnc2)cc1NC(=O)CCc1cn(CCN2CCOCC2)nn1,0%
8,Nc1ccc(-c2cccs2)cc1NC(=O)c1ccc(-c2cn(CC(=O)c3ccccc3)nn2)s1,22%
9,Nc1ccc(-c2ccsc2)cc1NC(=O)c1cn(CCc2ccccc2C(F)(F)F)nn1,0%
10,Nc1ccc(-c2cccs2)cc1NC(=O)c1cccc(-c2cn(CCN3CCOCC3)nn2)c1,48%
11,Nc1ccc(-c2cccs2)cc1NC(=O)c1cn(CCc2ccc(C(=O)O)cc2)nn1,16%
12,COc1ccc(-n2cc(-c3ccc(C(=O)Nc4cc(-c5cccs5)ccc4N)cc3)nn2)cc1,0%
13,COc1ccc(-n2cc(C(=O)Nc3cc(-c4cccs4)ccc3N)nn2)cc1,6%
14,Nc1ccc(-c2cccs2)cc1NC(=O)c1ccc(-c2cn(CCc3c[nH]c4ccccc34)nn2)s1,38%
15,Nc1ccc(-c2cccs2)cc1NC(=O)CCc1cn(CCCCCC(=O)O)nn1,6%
16,Nc1ccc(-c2cccnc2)cc1NC(=O)CCc1cn(CC23CC4CC(CC(C4)C2)C3)nn1,2%
17,Nc1ccc(-c2ccc(F)cc2)cc1NC(=O)CCc1cn(CCC2CCCC2)nn1,0%
18,Nc1ccc(-c2cccs2)cc1NC(=O)c1ccc(-c2cn(CCN3CCc4ccccc4C3)nn2)cc1,0%
19,Nc1ccc(-c2cccs2)cc1NC(=O)c1ccc(-c2cn(CC3CCCCC3)nn2)s1,0%

row,Compound,inhibition
1,Nc1ccc(-c2ccsc2)cc1NC(=O)c1cn(CC23CC4CC(CC(C4)C2)C3)nn1,0%
2,Nc1ccc(-c2cccs2)cc1NC(=O)c1cccc(-c2cn(CCc3ccc(Cl)cc3)nn2)c1,0%
3,Nc1ccc(-c2ccc(F)cc2)cc1NC(=O)c1cn(CS(=O)(=O)c2ccccc2)nn1,7%
4,Nc1ccc(-c2cccs2)cc1NC(=O)c1ccc(-c2cn(Cc3ccc(Oc4ccccc4)cc3)nn2)cc1,0%
5,Nc1ccc(-c2cccs2)cc1NC(=O)c1ccc(-c2cn(Cc3ccc(C(=O)O)cc3)nn2)s1,61%
6,Nc1ccc(-c2cccs2)cc1NC(=O)c1ccc(-c2cn(CCc3ccc(C(F)(F)F)cc3)nn2)s1,0%
7,COc1ccc(-n2cc(CCC(=O)Nc3cc(-c4ccsc4)ccc3N)nn2)cc1,12%
8,CCc1ccc(Cn2cc(-c3ccc(C(=O)Nc4cc(-c5cccs5)ccc4N)cc3)nn2)cc1,0%
9,Nc1ccc(-c2ccsc2)cc1NC(=O)c1cn(CCCCCCC(=O)O)nn1,8%
10,Cc1ccc(-n2cc(CCC(=O)Nc3cc(-c4cccnc4)ccc3N)nn2)cc1C,0%
11,Cc1ccccc1CCn1cc(-c2ccc(C(=O)Nc3cc(-c4cccs4)ccc3N)s2)nn1,14%
12,Nc1ccc(-c2ccsc2)cc1NC(=O)c1cn(-c2ccc(O)cc2)nn1,2%
13,Nc1ccc(-c2cccs2)cc1NC(=O)c1ccc(-c2cn(Cc3cc4ccccc4s3)nn2)cc1,0%
14,CCc1ccc(Cn2cc(C(=O)Nc3cc(-c4ccsc4)ccc3N)nn2)cc1,0%
15,Nc1ccc(-c2cccs2)cc1NC(=O)c1cn(-c2ccc(O)cc2)nn1,0%
16,Nc1ccc(-c2cccs2)cc1NC(=O)c1cn(Cc2nc3ccccc3[nH]2)nn1,20%
17,Cc1csc(CCn2cc(-c3cccc(C(=O)Nc4cc(-c5cccs5)ccc4N)c3)nn2)n1,24%
18,Nc1ccc(-c2cccs2)cc1NC(=O)c1cccc(-c2cn(CCCCCCCC(=O)O)nn2)c1,3%

# The remaining lines, values ahead:
row,inhibition,Compound
1,3%,Nc1ccc(-c2ccc(F)cc2)cc1NC(=O)CCc1cn(Cc2cc3ccccc3s2)nn1
2,11%,Nc1ccc(-c2cccnc2)cc1NC(=O)CCc1cn(Cc2nc3ccccc3[nH]2)nn1
3,41%,Nc1ccc(-c2ccc(F)cc2)cc1NC(=O)CCc1cn(CCc2cccc([N+](=O)[O-])c2)nn1
4,0%,Nc1ccc(-c2ccccc2)cc1NC(=O)CCc1cn(CCCCCCC(=O)O)nn1
5,9%,Nc1ccc(-c2cccs2)cc1NC(=O)CCc1cn(Cc2cccc3ccccc23)nn1
6,7%,Nc1ccc(-c2cccs2)cc1NC(=O)CCc1cn(CCc2ccccn2)nn1
7,14%,Nc1ccc(-c2ccc(F)cc2)cc1NC(=O)CCc1cn(Cc2cccc3ccccc23)nn1
8,0%,Nc1ccc(-c2ccccc2)cc1NC(=O)c1cn(CCc2ccccc2[N+](=O)[O-])nn1
9,24%,Nc1ccc(-c2cccs2)cc1NC(=O)CCc1cn(/C=C/c2ccccc2)nn1
10,4%,Nc1ccc(-c2cccnc2)cc1NC(=O)CCc1cn(CS(=O)(=O)c2ccccc2)nn1
11,6%,CCc1ccc(Cn2cc(CCC(=O)Nc3cc(-c4ccsc4)ccc3N)nn2)cc1
12,27%,Nc1ccc(-c2ccccc2)cc1NC(=O)c1cn(Cc2ccc(C(=O)O)cc2)nn1
13,30%,Nc1ccc(-c2ccccc2)cc1NC(=O)CCc1cn(CCc2cccc([N+](=O)[O-])c2)nn1
14,0%,Nc1ccc(-c2ccccc2)cc1NC(=O)CCc1cn(CCc2ccccc2Cl)nn1
15,0%,Nc1ccc(-c2ccc(F)cc2)cc1NC(=O)CCc1cn(Cc2ccc(-c3ccccc3)cc2)nn1
16,0%,Nc1ccc(-c2ccsc2)cc1NC(=O)CCc1cn(Cc2cccc(-c3ccccc3)c2)nn1
17,21%,COc1ccc(CCn2cc(CCC(=O)Nc3cc(-c4cccs4)ccc3N)nn2)cc1
18,27%,Cc1cccc(CCn2cc(CCC(=O)Nc3cc(-c4ccccc4)ccc3N)nn2)c1
19,0%,Nc1ccc(-c2ccc(F)cc2)cc1NC(=O)CCc1cn(CCc2cccc3ccccc23)nn1

row,inhibition,Compound
1,23%,Nc1ccc(-c2cccs2)cc1NC(=O)c1ccc(-c2cn(CCc3cccc([N+](=O)[O-])c3)nn2)s1
2,9%,Nc1ccc(-c2ccccc2)cc1NC(=O)c1cn(CCc2ccc(C(=O)O)cc2)nn1
3,11%,Cc1cccc(C)c1NC(=O)Cn1cc(CCC(=O)Nc2cc(-c3cccnc3)ccc2N)nn1
4,16%,Nc1ccc(-c2ccc(F)cc2)cc1NC(=O)CCc1cn(CCc2ccsc2)nn1
5,0%,Nc1ccc(-c2ccccc2)cc1NC(=O)CCc1cn(CCc2ccsc2)nn1
6,3%,Nc1ccc(-c2cccnc2)cc1NC(=O)CCc1cn(CCc2ccc([N+](=O)[O-])cc2)nn1
7,0%,Nc1ccc(-c2ccccc2)cc1NC(=O)CCc1cn(Cc2cc3ccccc3s2)nn1
8,5%,Nc1ccc(-c2ccc(F)cc2)cc1NC(=O)CCc1cn(CCCCCc2ccccc2)nn1
9,8%,Nc1ccc(-c2ccsc2)cc1NC(=O)CCc1cn(C[S+]([O-])c2ccccc2)nn1 (stereo not drawn)
10,13%,Nc1ccc(-c2ccccc2)cc1NC(=O)CCc1cn(CCc2ccccc2[N+](=O)[O-])nn1
11,15%,Nc1ccc(-c2cccs2)cc1NC(=O)CCc1cn(CS(=O)(=O)c2ccccc2)nn1
12,20%,Nc1ccc(-c2ccsc2)cc1NC(=O)CCc1cn(CCc2ccc3ccccc3n2)nn1
13,0%,Nc1ccc(-c2ccc(F)cc2)cc1NC(=O)CCc1cn(CCCCCC(=O)O)nn1
14,0%,Nc1ccc(-c2ccsc2)cc1NC(=O)CCc1cn(-c2cccc3ccccc23)nn1
15,0%,Nc1ccc(-c2cccnc2)cc1NC(=O)CCc1cn(CCc2ccc(C(F)(F)F)cc2)nn1
16,15%,Nc1ccc(-c2cccs2)cc1NC(=O)CCc1cn(-c2ccc([N+](=O)[O-])cc2)nn1
17,17%,Nc1ccc(-c2ccc(F)cc2)cc1NC(=O)CCc1cn(CCc2ccc(F)cc2)nn1
18,20%,Nc1ccc(-c2ccccc2)cc1NC(=O)CCc1cn(CCc2c[nH]c3ccccc23)nn1
